# Assay results as given in patent US5902812A, “Pharmaceutical piperazine compounds” (Xenova Limited, priority 1994, dated 1999).
# Structures can show the parent of a compound that is named as a salt. Where two headings read alike, the source gives them in different places.
# Biological target: PAI-1 (Homo sapiens, UniProt P05121)
# Test: biochemical
# Settings: for inhibition at 6.25 µM / inhibition at 12.5 µM / inhibition at 25 µM / inhibition at 50 µM / inhibition at 100 µM / inhibition at 20 µM: read-out: Degree of inhibition in PAI chromogenic substrate assay
# [1] = PAI chromogenic substrate assay, read-out: IC50
# Protocol: In this assay, a compound is incubated with PAI-1 prior to addition to the tPA assay system. Inhibition of PAI-1 results in the production of plasmin from plasminogen. In turn, plasmin cleaves the chromogenic substrate S2251 (Kabi Vitrum) producing pNA (p-nitroaniline) which is detected spectrophotometrically at 405 nm (K. Nilsson et al, Fibrinolysis (1987) 1, 163-168).
# Compounds of formula (A) were tested in a PAI chromogenic substrate assay. In the assay (K.Nilsson, Fibrinolysis (1987) 1, 163-168) each compound was incubated with PAI-1 prior to addition to the tPA assay system. […] In turn, the plasmin cleaved the chromogenic substrate S2251 (Kabi-Vitrum) producing pNA (p-nitroaniline) which was detected spectrophotometrically at 405 nm.
# Chain of PAI-1 (P05121 24-402): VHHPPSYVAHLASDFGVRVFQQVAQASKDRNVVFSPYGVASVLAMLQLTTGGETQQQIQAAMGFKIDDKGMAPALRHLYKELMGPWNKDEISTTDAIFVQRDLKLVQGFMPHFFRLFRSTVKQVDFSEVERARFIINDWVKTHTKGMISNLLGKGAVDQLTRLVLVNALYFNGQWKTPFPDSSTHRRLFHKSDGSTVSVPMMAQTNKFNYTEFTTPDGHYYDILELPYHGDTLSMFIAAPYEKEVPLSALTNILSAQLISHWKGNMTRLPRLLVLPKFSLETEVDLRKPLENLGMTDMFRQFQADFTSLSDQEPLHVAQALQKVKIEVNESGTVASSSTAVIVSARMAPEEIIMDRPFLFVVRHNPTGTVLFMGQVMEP
compound,measurement,setting,value
"CN(C)CCOc1ccc(/C=c2\[nH]c(=O)/c(=C/c3c(Cl)cccc3Cl)[nH]c2=O)cc1 [Compound 1980, (3Z,6Z)-3-(2,6-Dichlorobenzylidene)-6-(4-(2-dimethylaminoethoxy)benzylidene)-2,5-piperazinedione]",Degree of inhibition in PAI chromogenic substrate assay,6.25 μM,0%
same,Degree of inhibition in PAI chromogenic substrate assay,12.5 μM,13%
same,Degree of inhibition in PAI chromogenic substrate assay,25 μM,51%
same,Degree of inhibition in PAI chromogenic substrate assay,50 μM,41%
same,Degree of inhibition in PAI chromogenic substrate assay,100 μM,66%
"CN(C)CCCOc1ccc(/C=c2\[nH]c(=O)/c(=C/c3ccc(F)cc3)[nH]c2=O)cc1 [Compound 5365, (3Z,6Z)-3-(4-(3-Dimethylaminopropoxy)benzylidene)-6-(4-fluorobenzylidene)-2,5-piperazinedione]",IC50,[1],6.5 µM
"CC(C)(C)CC(=O)Oc1ccc(/C=c2\[nH]c(=O)/c(=C/c3ccccc3)[nH]c2=O)cc1 [Compound 1889, (3Z,6Z)-6-Benzylidene-3-(4-(3,3-dimethylbutanoyloxy)benzylidene)-2,5-piperazinedione]",inhibition at 6.25 µM,6.25 μM,0%
same,inhibition at 12.5 µM,12.5 μM,3%
same,inhibition at 25 µM,25 μM,15%
same,inhibition at 50 µM,50 μM,38%
same,inhibition at 100 µM,100 μM,49%
"CN(C)CCOc1ccc(/C=c2\[nH]c(=O)/c(=C/c3ccccc3)[nH]c2=O)cc1OCCN(C)C [Compound 1949, (3Z,6Z)-3-Benzylidene-6-(3,4-di-(2-dimethylaminoethoxy)benzylidene)-2,5-piperazinedione]",Degree of inhibition in PAI chromogenic substrate assay,6.25 μM,1%
same,Degree of inhibition in PAI chromogenic substrate assay,12.5 μM,1%
same,Degree of inhibition in PAI chromogenic substrate assay,25 μM,1%
same,Degree of inhibition in PAI chromogenic substrate assay,50 μM,1%
same,Degree of inhibition in PAI chromogenic substrate assay,100 μM,3%
"CN(C)CCCOc1ccc(/C=c2\[nH]c(=O)/c(=C/c3cccc([N+](=O)[O-])c3)[nH]c2=O)cc1 [Compound 5231, (3Z,6Z)-6-(4-(3-Dimethylaminopropoxy)benzylidene)-3-(3-nitrobenzylidene)-2,5-piperazinedione]",inhibition at 20 µM,20 μM (third part of Table 1),42%
same,inhibition at 100 µM,100 μM (third part of Table 1),36%
same,IC50,[1],1.5 µM
CN(C)CCCOc1ccc(/C=c2\[nH]c(=O)/c(=C/c3ccc(N)cc3)[nH]c2=O)cc1 [Compound 5260],IC50,[1],17 µM
COc1ccc(/C=c2\[nH]c(=O)/c(=C/c3ccc(OCCN(C)C)cc3)[nH]c2=O)cc1 [Compound 1911],inhibition at 6.25 µM,6.25 μM,13%
same,inhibition at 12.5 µM,12.5 μM,20%
same,inhibition at 25 µM,25 μM,15%
same,inhibition at 50 µM,50 μM,23%
same,inhibition at 100 µM,100 μM,38%
"CCCCOc1ccc(/C=c2\[nH]c(=O)/c(=C/c3ccc(OCCCN(C)C)cc3)[nH]c2=O)cc1 [Compound 1920, (3Z,6Z)-3-(4-Butoxybenzylidene)-6-(4-(3-dimethylaminopropoxy)benzylidene)-2,5-piperazinedione]",inhibition at 6.25 µM,6.25 μM,33%
same,inhibition at 12.5 µM,12.5 μM,50%
same,inhibition at 25 µM,25 μM,57%
same,inhibition at 50 µM,50 μM,66%
same,inhibition at 100 µM,100 μM,68%
"Cc1ccc(/C=c2\[nH]c(=O)/c(=C/c3ccc(OCCCN(C)C)cc3)[nH]c2=O)cc1 [Compound 5235, (3Z,6Z)-3-(4-(3-Dimethylaminopropoxy)benzylidene)-6-(4-methylbenzylidene)-2,5-piperazinedione]",IC50,[1],6 µM
CCN(CC)CCOc1ccc(/C=c2\[nH]c(=O)/c(=C/c3ccccc3)[nH]c2=O)cc1 [Compound 5065.HCl],inhibition at 20 µM,20 μM (third part of Table 1),12%
same,inhibition at 50 µM,50 μM (third part of Table 1),80%
same,inhibition at 100 µM,100 μM (third part of Table 1),85%
"CN(C)CCCOc1ccc(/C=c2\[nH]c(=O)/c(=C/c3ccccc3[N+](=O)[O-])[nH]c2=O)cc1 [Compound 5208, (3Z,6Z)-6-(4-(3-Dimethylaminopropoxy)benzylidene)-3-(2-nitrobenzylidene)-2,5-piperazinedione]",inhibition at 20 µM,20 μM (third part of Table 1),10%
same,inhibition at 100 µM,100 μM (third part of Table 1),32%
"CN(C)CCCOc1ccc(/C=c2\[nH]c(=O)/c(=C/c3ccc(C(=O)NCCCCc4ccccc4)cc3)[nH]c2=O)cc1 [Compound 5347, N-(4-Phenylbutyl)-4-((3Z,6Z)-6-(4-(3-Dimethylaminopropoxy)benzylidene)-2,5-dioxo-3-piperazinylidene)methylbenzamide]",inhibition at 20 µM,20 μM (third part of Table 1),39%
"CN(C)CCCOc1ccc(/C=c2\[nH]c(=O)/c(=C/c3ccc(OCCCN(C)C)cc3)[nH]c2=O)cc1 [Compound 1955, (3Z,6Z)-3,6-Di-(4-(3-dimethylaminopropoxy)benzylidene)-2,5-piperazinedionebis hydrogen succinate (1:2)]",Degree of inhibition in PAI chromogenic substrate assay,6.25 μM,0%
same,inhibition at 12.5 µM,12.5 μM,2%
same,inhibition at 25 µM,25 μM,3%
same,inhibition at 50 µM,50 μM,2%
same,inhibition at 100 µM,100 μM,9%
"CN(C)CCCOc1ccc(/C=c2\[nH]c(=O)/c(=C/c3ccc([N+](=O)[O-])cc3)[nH]c2=O)cc1 [Compound 5230, (3Z,6Z)-3-(4-(3-dimethylaminopropoxy)benzylidene)-6-(4-nitrobenzylidene)-2,5-piperazinedione]",inhibition at 20 µM,20 μM (third part of Table 1),30%
same,inhibition at 100 µM,100 μM (third part of Table 1),9%
same,IC50,[1],0.75 µM
"CN(C)CCCOc1ccc(/C=c2\[nH]c(=O)/c(=C/c3ccc(F)cc3)[nH]c2=O)cc1 [Compound 5365.HCl, (3Z,6Z)-3-(4-(3-Dimethylaminopropoxy)benzylidene)-6-(4-fluorobenzylidene)-2,5-piperazinedione]",IC50,[1],3.3 µM
"CN(C)CCCOc1ccc(/C=c2\[nH]c(=O)/c(=C/c3ccc(C(C)(C)C)cc3)[nH]c2=O)cc1 [Compound 5238, (3Z,6Z)-3-(4-(3-Dimethylaminopropoxy)benzylidene)-6-(4-tert-butylbenzylidene)-2,5-piperazinedione]",inhibition at 20 µM,20 μM (third part of Table 1),3%
same,inhibition at 100 µM,100 μM (third part of Table 1),36%
"CC(=O)Nc1cccc(/C=c2\[nH]c(=O)/c(=C/c3ccc(OCCCN(C)C)cc3)[nH]c2=O)c1 [Compound 5256, (3Z,6Z)-3-(3-Acetamidobenzylidene)-6-(4-(3-dimethylaminopropoxy)benzylidene)-2,5-piperazinedione]",inhibition at 20 µM,20 μM (third part of Table 1),10%
same,inhibition at 100 µM,100 μM (third part of Table 1),65%
same,IC50,[1],100 µM
"CN(C)CCOc1ccc(/C=c2\[nH]c(=O)/c(=C/c3ccc(OCCN(C)C)cc3)[nH]c2=O)cc1 [Compound 1962, (3Z,6Z)-3,6-Di-(4-(2-dimethylaminoethoxy)benzylidene)-2,5-piperazinedione dihydrochloride]",inhibition at 6.25 µM,6.25 μM,1%
same,inhibition at 12.5 µM,12.5 μM,1%
same,inhibition at 25 µM,25 μM,1%
same,inhibition at 50 µM,50 μM,2%
same,inhibition at 100 µM,100 μM,2%
"CN(C)CCOc1ccccc1/C=c1\[nH]c(=O)/c(=C/c2ccccc2)[nH]c1=O [Compound 1979, (3Z,6Z)-Benzylidene-3-(2-(2-dimethylaminoethoxy)benzylidene)-2,5-piperazinedione]",inhibition at 6.25 µM,6.25 μM,0%
same,Degree of inhibition in PAI chromogenic substrate assay,100 μM,37%
"CN(C)CCCOc1ccc(/C=c2\[nH]c(=O)/c(=C/c3cc([N+](=O)[O-])cc([N+](=O)[O-])c3)[nH]c2=O)cc1 [Compound 5378, (3Z,6Z)-6-(4-(3-Dimethylaminopropoxy)benzylidene)-3-(3,5-dinitrobenzylidene)-2,5-piperazinedione]",IC50,"IC50, PAI chromogenic substrate assay",20 µM
same,inhibition at 20 µM,,50%
CN(C)CCCOc1ccc(/C=c2\[nH]c(=O)/c(=C/c3ccc(Cl)cc3)[nH]c2=O)cc1 [Compound 5233],inhibition at 20 µM,20 μM (third part of Table 1),47%
same,inhibition at 100 µM,100 μM (third part of Table 1),50%
same,IC50,[1],2.5 µM
"COc1ccccc1/C=c1\[nH]c(=O)/c(=C/c2ccc(OCCCN(C)C)cc2)[nH]c1=O [Compound 5241, (3Z,6Z)-6-(4-(3-Dimethylaminopropoxy)benzylidene)-3-(2-methoxybenzylidene)-2,5-piperazinedione]",inhibition at 20 µM,20 μM (third part of Table 1),1%
same,inhibition at 100 µM,100 μM (third part of Table 1),21%
